Literature values, collected in patent publication US20240398763A1, “ORAL DOSAGE FORM CONTAINING ONCOLOGICAL ACTIVE INGREDIENT” (OWP Pharmaceuticals, Inc., priority 2023, published 2024).
≈ marks a conversion by molar mass, not a printed value. Where two headings read alike, the source gives them in different places.

[1] = in water / aqueous media, in words

Structure (SMILES) | Solubility [1] | other results
CNC(=O)c1ccccc1Sc1ccc2c(/C=C/c3ccccn3)n[nH]c2c1 [axitinib] | – | Solubility (aqueous media over the range pH 1.1 to pH 7.8): excess of 0.2 μg/mL
CCCCCN(C)CCC(O)(P(=O)(O)O)P(=O)(O)O [ibandronate sodium] | water soluble | –
CN1CC[C@@H](NC(=O)Nc2ccc(C#N)cc2)C[C@@H]1c1nc2ccccc2[nH]1 [glasdegib] | – | Solubility (condition not given): 1700 µg/mL (≈ 4.54 mM)
O=NN(CCCl)C(=O)NC1CCCCC1 [lomustine] | insoluble in water | –

Now from value to molecule, other results behind:

Solubility [1] | Structure (SMILES) | other results
insoluble in water | CN1CCC(COc2cnc(-c3cccc(Cn4nc(-c5cccc(C#N)c5)ccc4=O)c3)nc2)CC1 [tepotinib] | –
practically insoluble | CC(C)(O)CNc1nc(Nc2ccnc(C(F)(F)F)c2)nc(-c2cccc(C(F)(F)F)n2)n1 [enasidenib] | Solubility (aqueous solutions across physiological pH range (pH 1.2 and 7.4)): (solubility ≤74 mcg/mL)
insoluble in water | N[C@@H](Cc1cc(I)c(Oc2cc(I)c(O)c(I)c2)c(I)c1)C(=O)O [levothyroxine sodium] | –
